Test results taken from patent US5688913A, “CS-1 peptidomimetics, compositions and methods of using the same” (Cytel Corporation, priority 1995, dated 1997).
Numbered stars: 1 amine (or outer) side, 2 acyl side, 3 side chain; on linkers, the order of the positions; unused ones are H or OH. Square brackets hold non-standard residues; d marks the D form. Peptide text beside a SMILES is read from it. * marks the point of attachment. Biotin = O=C1N[C@H]2[C@H](CS[C@H]2CCCCC(=O)*)N1; Quinoline3carbonyl = O=C(c1cnc2ccccc2c1)*; Pyrazinecarbonyl = O=C(c1cnccn1)*; Quinaldoyl = O=C(c1ccc2ccccc2n1)*; Brosyl = O=S(=O)(c1ccc(Br)cc1)*; X15 = O=S(=O)(c1cccc2cccnc12)*; X19 = O=C(Cc1ccc(Br)cc1)*; Piperidide = C1CCN(*)CC1; Pyrrolidide = C1CCN(*)C1; Cbz = O=C(OCc1ccccc1)*; NHDecyl = CCCCCCCCCCN*; PhAc = O=C(Cc1ccccc1)*; CO = O=C([*:1])[*:2]; Bz = O=C(c1ccccc1)*; NHPh = c1ccc(N*)cc1; Ahx = NCCCCCC(=O)O; NHBu = CCCCN*

What follows are compounds tested against VLA-4 (Homo sapiens, UniProt P05556+P13612) (assay: cell-based). Conditions: not given.
VLA-4, sequence (P13612 34-1032): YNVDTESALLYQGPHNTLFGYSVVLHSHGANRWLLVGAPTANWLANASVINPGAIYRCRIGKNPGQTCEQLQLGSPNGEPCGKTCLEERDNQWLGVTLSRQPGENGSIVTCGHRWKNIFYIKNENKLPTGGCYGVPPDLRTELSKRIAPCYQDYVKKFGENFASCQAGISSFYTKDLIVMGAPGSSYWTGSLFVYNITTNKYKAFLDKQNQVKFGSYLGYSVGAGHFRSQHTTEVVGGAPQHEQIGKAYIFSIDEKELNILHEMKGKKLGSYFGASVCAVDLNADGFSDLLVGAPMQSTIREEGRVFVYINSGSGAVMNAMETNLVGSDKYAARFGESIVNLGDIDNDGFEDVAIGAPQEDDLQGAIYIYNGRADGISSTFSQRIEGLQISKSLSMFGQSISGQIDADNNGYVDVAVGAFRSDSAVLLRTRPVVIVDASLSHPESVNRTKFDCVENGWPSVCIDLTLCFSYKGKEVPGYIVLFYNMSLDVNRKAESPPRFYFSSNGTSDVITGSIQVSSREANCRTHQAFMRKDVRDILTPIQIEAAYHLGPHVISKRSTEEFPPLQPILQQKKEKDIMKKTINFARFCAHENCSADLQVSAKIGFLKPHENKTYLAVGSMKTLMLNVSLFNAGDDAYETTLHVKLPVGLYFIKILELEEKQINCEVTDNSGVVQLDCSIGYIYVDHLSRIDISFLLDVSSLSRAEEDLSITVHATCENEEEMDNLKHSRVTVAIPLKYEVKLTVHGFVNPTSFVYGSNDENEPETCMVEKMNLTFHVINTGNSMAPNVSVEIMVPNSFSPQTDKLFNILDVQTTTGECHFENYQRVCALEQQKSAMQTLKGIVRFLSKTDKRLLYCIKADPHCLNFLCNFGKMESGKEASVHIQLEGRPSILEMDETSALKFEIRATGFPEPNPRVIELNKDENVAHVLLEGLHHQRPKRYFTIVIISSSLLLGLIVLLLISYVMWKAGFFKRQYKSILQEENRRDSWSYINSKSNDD
VLA-4, sequence (P05556 21-798): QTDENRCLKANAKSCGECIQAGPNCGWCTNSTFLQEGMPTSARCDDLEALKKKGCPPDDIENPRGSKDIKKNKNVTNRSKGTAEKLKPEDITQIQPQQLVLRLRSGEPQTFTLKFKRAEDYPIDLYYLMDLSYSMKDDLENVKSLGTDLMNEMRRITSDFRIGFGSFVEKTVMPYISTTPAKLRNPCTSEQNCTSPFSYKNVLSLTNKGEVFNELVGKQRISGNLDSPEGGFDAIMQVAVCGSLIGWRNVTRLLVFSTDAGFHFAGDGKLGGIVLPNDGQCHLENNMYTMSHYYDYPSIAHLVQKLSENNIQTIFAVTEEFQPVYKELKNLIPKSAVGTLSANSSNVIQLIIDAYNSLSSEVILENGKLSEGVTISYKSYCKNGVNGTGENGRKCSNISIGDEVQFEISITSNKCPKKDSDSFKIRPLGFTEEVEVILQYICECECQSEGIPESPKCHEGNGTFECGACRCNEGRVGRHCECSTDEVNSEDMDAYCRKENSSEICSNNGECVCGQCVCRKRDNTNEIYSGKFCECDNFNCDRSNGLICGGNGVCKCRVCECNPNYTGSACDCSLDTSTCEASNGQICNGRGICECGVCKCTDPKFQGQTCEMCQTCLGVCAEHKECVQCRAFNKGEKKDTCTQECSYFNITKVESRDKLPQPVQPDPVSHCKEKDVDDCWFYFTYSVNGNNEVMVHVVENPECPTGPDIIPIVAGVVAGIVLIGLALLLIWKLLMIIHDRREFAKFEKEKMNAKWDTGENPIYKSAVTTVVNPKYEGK
Format: cell-based
Parameters: host or cells: Jurkat (human T lymphoblastic line)
Procedure: Binding inhibition is measured here as a concentration of peptide that inhibits one-half the binding between a standard number of Jurkat cells and a standard amount of CS-1 peptide bound to the surface of a microtiter plate well. Those concentrations are conveniently expressed as IC50 values, smaller numbers indicating a lower concentration required to inhibit 50 percent binding and therefore greater potency. Further specifics of this assay are provided hereinafter.
Jurkat cells (ATCC TIB 152), a human T lymphoblastic line, labeled with ^51 chromium were used to assay in vitro binding inhibition provided by various peptides discussed herein.
The plates were prepared as follows: The 25-mer CS-1 peptide (SEQ ID NO:1) dissolved at 0.5-1 μg/ml in a buffer of 0.1M NaHCO3 at pH 9.5 that also contained 10 μg/ml of bovine serum albumin (BSA) or a conjugate of the CS-1 peptide linked to ovalbumin (CS-1-OVA) dissolved at 1-2.5 μg/ml in the same buffer was used as the substrate. Each well of the microtiter plates was coated with 50 μl of substrate or buffer alone for controls. The wells were permitted to dry out completely and were then rinsed twice with PBS at pH 7.4. Non-specific binding sites of each well were then blocked using 200 μl per well of RPMI/1 percent BSA for two hours at room temperature. Both solid phase-affixed substrates provided similar results.
Jurkat cells (3-5×10^6 cells) were placed into a 15 ml Falcon™ round-bottom tube with a cap. The tube was centrifuged, and the extra medium was then removed.
Two hundred microliters of a ^51 Cr labeling solution were added to the centrifuged cells and maintained in contact with the cells for 90-120 minutes in a warm room. This procedure typically provides about 50,000-100,000 cpm/well with about 80-100 percent cell viability. Longer contact times provide a greater amount of labeling but lower cell viability.
The labeled cells are washed with (i) complete medium, (ii) 1 mM EDTA/PBS and then (iii) RPM1/1 percent BSA free of serum components. The cells are centrifuged after each washing. The cells are finally resuspended in serum-free RPMI/1 percent BSA at a concentration of 1×10^6 viable cells/ml, which provides a concentration that is diluted by one-half in the assay.
Inhibitor peptides are prepared as stock solutions at 20 mg/ml in DMSO in 1.5 ml cryogenic screwcap vials, and were stored at -70° C. Using Flow™ round-bottom or V-bottom microtiter plates, the inhibitor peptides were prepared at twice the assay concentration in RPMI/1 percent BSA at 60 μl well.
Four initial dilutions were typically used.
The ^51 Cr-labeled cells (1×10^6 cells at 60 μl/well) were then admixed with the diluted peptide solutions. The admixtures were maintained at room temperature (about 22° C.) for 30 minutes.
One hundred microliters of each inhibitor peptide/cell admixture were transferred to the substrate-coated wells. This was done in triplicate for each dilution. The resulting plates were incubated for 30 minutes at 37° C. and then washed gently three times with RPMI/1 percent BSA at 200 μl/well. Binding was observed microscopically, particularly after the second wash.
The bound cells were then lysed by the addition of a 0.5 percent solution of sodium dodecylsulfate in water at 100 μ/l well. The resulting solutions were then processed for counting and calculation of IC50 values following usual procedures. Appropriate positive and negative controls were used with each plate so that the results of separate assays could be normalized and compared.
The data of Table 1 are so normalized.
In the case of CC(C)C[C@H](NC(=O)[C@H](Cc1ccccc1)NC(=O)CCCCCNC(=O)CCCC[C@@H]1SC[C@@H]2NC(=O)N[C@@H]21)C(=O)N[C@@H](CC(=O)O)C(=O)N[C@@H](Cc1ccccc1)C(=O)N1CCC[C@@H]1C(N)=O [B Z F L D F p, N-(biotinoyl-ε-aminocaproyl)-Phe-Leu-Asp-Phe-D-Pro-NH2] ({Biotin-Ahx}-FLDF[dP]-NH2), the “RELATIVE POTENCY (relative peptide inhibition of VLA-4 binding CS-1)” value is reported as 150.
For CC[C@H](C)[C@H](N)C(=O)N[C@@H](CC(C)C)C(=O)N[C@@H](CC(=O)O)C(=O)N[C@@H](Cc1ccccc1)C(=O)N1CCC[C@@H]1C(N)=O [I L D F p free amine amide] (H-ILDF[dP]-NH2), the “RELATIVE POTENCY (relative peptide inhibition of VLA-4 binding CS-1)” value was 2.
With CC[C@H](C)[C@H](N)C(=O)N[C@@H](CC(C)C)C(=O)N[C@@H](CC(=O)O)C(=O)N[C@H](C(=O)N1CCC[C@H]1C(=O)N[C@H](C(=O)N[C@@H](CC(C)C)C(=O)N[C@@H](CC(=O)O)C(=O)N[C@H](C(=O)N1CCC[C@H]1C(N)=O)C(C)C)[C@@H](C)CC)C(C)C [I L D V P I L D V P free amine amide] (H-ILDVPILDVP-NH2) the “RELATIVE POTENCY (relative peptide inhibition of VLA-4 binding CS-1)” value was 2.
With CC[C@H](C)[C@H](N)C(=O)N[C@@H](CC(C)C)C(=O)N[C@@H](CC(=O)O)C(=O)N[C@H](C(=O)N1CCC[C@H]1C(=O)O)C(C)C [I L D V P free amine free acid, reference compound] (H-ILDVP-OH) the “RELATIVE POTENCY (relative peptide inhibition of VLA-4 binding CS-1)” value was 1.
With CC(C)C[C@H](N)C(=O)N[C@@H](CC(=O)O)C(=O)N[C@@H](Cc1ccccc1)C(=O)N1CCCCC1 [L D F Z free amine piperidinamide] (H-Leu-Asp-Phe-Piperidide) the “RELATIVE POTENCY (relative peptide inhibition of VLA-4 binding CS-1)” value was 0.
In the case of CC(=O)N[C@@H](CC(C)C)C(=O)N[C@@H](CC(=O)O)C(=O)N[C@@H](Cc1ccccc1)C(N)=O [L D F acetyl amide] (Ac-Leu-Asp-Phe-NH2), the “RELATIVE POTENCY (relative peptide inhibition of VLA-4 binding CS-1)” value is reported as less than 1.
With CC(C)C[C@H](N)C(=O)N[C@@H](CC(=O)O)C(=O)N[C@@H](Cc1ccccc1)C(N)=O [L D F free amine amide] (H-Leu-Asp-Phe-NH2) the “RELATIVE POTENCY (relative peptide inhibition of VLA-4 binding CS-1)” value was 0.
CC(=O)N[C@@H](CC(C)C)C(=O)N[C@@H](CC(=O)O)C(=O)N[C@H](C(N)=O)C(C)C [L D V acetyl amide, reference compound] (Ac-Leu-Asp-Val-NH2) was tested, and the “RELATIVE POTENCY (relative peptide inhibition of VLA-4 binding CS-1)” value was 1.
In the case of CC(C)C[C@H](N)C(=O)N[C@@H](CC(=O)O)C(=O)N[C@H](C(N)=O)C(C)C [L D V free amine amide, reference compound] (H-Leu-Asp-Val-NH2), the “RELATIVE POTENCY (relative peptide inhibition of VLA-4 binding CS-1)” value is reported as 0.
With CC(=O)N[C@@H](CO)C(=O)N[C@@H](Cc1ccccc1)C(=O)N[C@@H](CC(=O)O)C(=O)N[C@@H](Cc1ccccc1)C(=O)N[C@@H](CO)C(N)=O [S F D F S acetyl amide] (Ac-SFDFS-NH2) the “RELATIVE POTENCY (relative peptide inhibition of VLA-4 binding CS-1)” value was less than 1.
For CC(C)C[C@H](NCc1ccccc1)C(=O)N[C@@H](CC(=O)O)C(=O)N[C@@H](Cc1ccccc1)C(=O)N1CCCCC1 [X L D F Z benzyl piperidinamide], the “RELATIVE POTENCY (relative peptide inhibition of VLA-4 binding CS-1)” value was 6.
With CC(C)C[C@H](NC(=O)c1cnccn1)C(=O)N[C@@H](CC(=O)O)C(=O)N[C@@H](Cc1ccccc1)C(=O)N1CCC[C@@H]1C(N)=O [X L D F p 2-pyrazinecarbonyl amide] (Pyrazinecarbonyl-LDF[dP]-NH2) the “RELATIVE POTENCY (relative peptide inhibition of VLA-4 binding CS-1)” value was 9.
In the case of CC(C)C[C@H](NC(=O)c1ccc2ccccc2n1)C(=O)N[C@@H](CC(=O)O)C(=O)N[C@@H](Cc1ccccc1)C(=O)N1CCC[C@@H]1C(N)=O [X L D F p 2-quinolinecarbonyl amide] (Quinaldoyl-LDF[dP]-NH2), the “RELATIVE POTENCY (relative peptide inhibition of VLA-4 binding CS-1)” value is reported as 4.
CC(C)C[C@H](NC(=O)c1cnc2ccccc2c1)C(=O)N[C@@H](CC(=O)O)C(=O)N[C@@H](Cc1ccccc1)C(=O)N1CCC[C@@H]1C(N)=O [X L D F p 3-quinolinecarbonyl amide] (Quinoline3carbonyl-LDF[dP]-NH2) was tested, and the “RELATIVE POTENCY (relative peptide inhibition of VLA-4 binding CS-1)” value was 56.
For CC(C)C[C@H](NS(=O)(=O)c1ccc(Br)cc1)C(=O)N[C@@H](CC(=O)O)C(=O)N[C@@H](Cc1ccccc1)C(=O)N1CCC[C@@H]1C(N)=O [X L D F p 4-bromophenylsulfonyl amide] (Brosyl-LDF[dP]-NH2), the “RELATIVE POTENCY (relative peptide inhibition of VLA-4 binding CS-1)” value was less than 1.
CC(C)C[C@H](NS(=O)(=O)c1cccc2cccnc12)C(=O)N[C@@H](CC(=O)O)C(=O)N[C@@H](Cc1ccccc1)C(=O)N1CCC[C@@H]1C(N)=O [X L D F p 8-quinolinesulfonyl amide] (X15-LDF[dP]-NH2) was tested, and the “RELATIVE POTENCY (relative peptide inhibition of VLA-4 binding CS-1)” value was 3.
In the case of CC(C)C[C@H](NC(=O)Nc1ccccc1)C(=O)N[C@@H](CC(=O)O)C(=O)N[C@@H](Cc1ccccc1)C(=O)N1CCC[C@@H]1C(N)=O [X L D F p anilinocarbonyl amide] ({NHPh-CO}-LDF[dP]-NH2), the “RELATIVE POTENCY (relative peptide inhibition of VLA-4 binding CS-1)” value is reported as 227.
In the case of CC(C)C[C@H](NC(=O)OCc1ccccc1)C(=O)N[C@@H](CC(=O)O)C(=O)N[C@@H](Cc1ccccc1)C(=O)N1CCC[C@@H]1C(N)=O [X L D F p benzyloxycarbonyl amide] (Cbz-LDF[dP]-NH2), the “RELATIVE POTENCY (relative peptide inhibition of VLA-4 binding CS-1)” value is reported as 34.
In the case of CC(C)C[C@H](NC(=O)Cc1ccc(Br)cc1)C(=O)N[C@@H](CC(=O)O)C(=O)N[C@@H](Cc1ccccc1)C(=O)N1CCC[C@@H]1C(N)=O [X L D F p p-bromophenylacetyl amide] (X19-LDF[dP]-NH2), the “RELATIVE POTENCY (relative peptide inhibition of VLA-4 binding CS-1)” value is reported as 3.

Same assay, conditions: normalized IC50 relative to standard peptide of SEQ ID NO:3 (=1); about one-tenth or less of the standard is assigned zero
With CC(C)C[C@H](NC(=O)[C@H](CC(=O)O)NC(=O)Cc1ccccc1)C(=O)N[C@@H](Cc1ccccc1)C(=O)N1CCC[C@@H]1C(N)=O [X D L F p phenylacetyl amide, N-phenylacetyl-Asp-Leu-Phe-D-Pro-NH2, reference compound] (PhAc-DLF[dP]-NH2) the “RELATIVE POTENCY (relative peptide inhibition of VLA-4 binding CS-1)” value was less than 1.
For CCCCCCCCCCNC(=O)[C@@H]1CCCN1C(=O)[C@H](Cc1ccccc1)NC(=O)[C@H](CC(=O)O)NC(=O)[C@H](CC(C)C)NC(=O)Cc1ccccc1 [X L D F P Z phenylacetyl decylamide] (PhAc-LDFP-NHDecyl), the “RELATIVE POTENCY (relative peptide inhibition of VLA-4 binding CS-1)” value was 2.
In the case of CCCCNC(=O)[C@H](Cc1ccccc1)NC(=O)[C@H](CC(=O)O)NC(=O)[C@H](CC(C)C)NC(=O)Cc1ccccc1 [X L D F Z phenylacetyl n-butylamide] (PhAc-Leu-Asp-Phe-NHBu), the “RELATIVE POTENCY (relative peptide inhibition of VLA-4 binding CS-1)” value is reported as 3.
For CC(C)C[C@H](NC(=O)Cc1ccccc1)C(=O)N[C@@H](CC(=O)O)C(=O)N[C@@H](Cc1ccccc1)C(=O)N1CCNCC1 [X L D F Z phenylacetyl piperazinamide], the “RELATIVE POTENCY (relative peptide inhibition of VLA-4 binding CS-1)” value was 506.
CC(C)C[C@H](NC(=O)Cc1ccccc1)C(=O)N[C@@H](CC(=O)O)C(=O)N[C@@H](Cc1ccccc1)C(=O)N1CCCC1 [X L D F Z phenylacetyl pyrrolidinamide] (PhAc-Leu-Asp-Phe-Pyrrolidide) was tested, and the “RELATIVE POTENCY (relative peptide inhibition of VLA-4 binding CS-1)” value was 250.
In the case of CC(C)C[C@H](NC(=O)c1ccccc1)C(=O)N[C@@H](CC(=O)O)C(=O)N[C@@H](Cc1ccccc1)C(=O)N1CCC[C@@H]1C(N)=O [X L D F p benzoyl amide] (Bz-LDF[dP]-NH2), the “RELATIVE POTENCY (relative peptide inhibition of VLA-4 binding CS-1)” value is reported as 75.

Same assay, conditions: normalized IC50 relative to standard peptide of SEQ ID NO:3 (=1); about one-tenth or less of the standard is assigned zero; listed as Leu-Asp-Val (LDV) N-free amine C-amide
For CC(C)C[C@H](N)C(=O)N[C@@H](CC(=O)O)C(=O)N[C@H](C(N)=O)C(C)C [L D V free amine amide, reference compound] (H-Leu-Asp-Val-NH2), the “RELATIVE POTENCY (relative peptide inhibition of VLA-4 binding CS-1)” value was “zero”.
